Data as given in the NIST ThermoML archive (doi:10.1007/s10765-010-0902-x).
Numbers after ± are expanded uncertainties.

Tests used:
[1] = refractive index (Na D-line) (dimensionless); details: 298.15 K; 101.33 kPa; Liquid; Standard Abbe refractometry
[2] = 298.15 K; 101 kPa; Liquid
[3] = xn = mol fraction of the nth substance listed; details: 298.15 K, 101 kPa, Liquid; for viscosity: Capillary tube (Ostwald / Ubbelohde) method
[4] = refractive index (Na D-line) (dimensionless); xn = mol fraction of the nth substance listed; details: 298.15 K, 101 kPa, Liquid, Standard Abbe refractometry

CCCCCl [1-chlorobutane]
Details | mass density [kg/m3] | refractive index
[1] | – | 1.3996 ± 0.0004
[2] | 880.87 ± 0.35 | –

CCCCCl [1-chlorobutane] + CCCCOC(C)=O
Details | mass density, [3] [kg/m3] | refractive index, [4] | viscosity, [3] [mPa·s]
x2 = 0 | 880.87 ± 0.35 | 1.3996 ± 0.0004 | –
x2 = 0.0503 | 880.41 ± 0.35 | 1.3989 ± 0.0004 | 0.42 ± 0.005
x2 = 0.1111 | 879.89 ± 0.35 | 1.3981 ± 0.0004 | 0.432 ± 0.005
x2 = 0.1527 | 879.56 ± 0.35 | 1.3976 ± 0.0004 | 0.441 ± 0.005
x2 = 0.2003 | 879.19 ± 0.35 | 1.3971 ± 0.0004 | 0.451 ± 0.005
x2 = 0.2996 | 878.52 ± 0.35 | 1.3961 ± 0.0004 | 0.473 ± 0.005
x2 = 0.3493 | 878.23 ± 0.35 | 1.3956 ± 0.0004 | 0.484 ± 0.005
x2 = 0.3978 | 877.97 ± 0.35 | 1.3952 ± 0.0004 | 0.495 ± 0.005
x2 = 0.4508 | 877.72 ± 0.35 | 1.3947 ± 0.0004 | 0.507 ± 0.005
x2 = 0.4997 | 877.51 ± 0.35 | 1.3943 ± 0.0004 | 0.519 ± 0.005
x2 = 0.55 | 877.31 ± 0.35 | 1.3939 ± 0.0004 | 0.531 ± 0.005
x2 = 0.5985 | 877.15 ± 0.35 | 1.3936 ± 0.0004 | 0.543 ± 0.005
x2 = 0.6501 | 876.99 ± 0.35 | 1.3933 ± 0.0004 | 0.555 ± 0.005
x2 = 0.7002 | 876.84 ± 0.35 | 1.393 ± 0.0004 | 0.568 ± 0.006
x2 = 0.7493 | 876.72 ± 0.36 | 1.3928 ± 0.0004 | 0.58 ± 0.006
x2 = 0.8042 | 876.6 ± 0.36 | 1.3925 ± 0.0004 | 0.594 ± 0.006
x2 = 0.85 | 876.51 ± 0.36 | 1.3923 ± 0.0004 | 0.606 ± 0.006
x2 = 0.8991 | 876.43 ± 0.36 | 1.3921 ± 0.0004 | 0.619 ± 0.006

CCCCCCCCl [1-chloroheptane]
Details | mass density [kg/m3] | refractive index
[1] | – | 1.4236 ± 0.0004
[2] | 872.79 ± 0.36 | –

CCCCCCCCl [1-chloroheptane] + CCCCOC(C)=O
Details | mass density, [3] [kg/m3] | refractive index, [4] | viscosity, [3] [mPa·s]
x2 = 0 | 872.79 ± 0.36 | 1.4236 ± 0.0004 | –
x2 = 0.0505 | 872.6 ± 0.36 | 1.4219 ± 0.0004 | 0.828 ± 0.007
x2 = 0.1006 | 872.52 ± 0.36 | 1.4203 ± 0.0004 | 0.815 ± 0.007
x2 = 0.1503 | 872.45 ± 0.36 | 1.4189 ± 0.0004 | 0.803 ± 0.006
x2 = 0.2014 | 872.41 ± 0.36 | 1.4175 ± 0.0004 | 0.792 ± 0.006
x2 = 0.3003 | 872.39 ± 0.36 | 1.4147 ± 0.0004 | 0.77 ± 0.006
x2 = 0.3505 | 872.42 ± 0.36 | 1.4133 ± 0.0004 | 0.759 ± 0.006
x2 = 0.4007 | 872.48 ± 0.36 | 1.4118 ± 0.0004 | 0.749 ± 0.006
x2 = 0.4503 | 872.56 ± 0.36 | 1.4103 ± 0.0004 | 0.739 ± 0.006
x2 = 0.5006 | 872.71 ± 0.36 | 1.4087 ± 0.0004 | 0.729 ± 0.006
x2 = 0.6001 | 873.07 ± 0.36 | 1.4054 ± 0.0004 | 0.71 ± 0.006
x2 = 0.65 | 873.32 ± 0.36 | 1.4037 ± 0.0004 | 0.7 ± 0.006
x2 = 0.6996 | 873.64 ± 0.36 | 1.402 ± 0.0004 | 0.691 ± 0.006
x2 = 0.7499 | 873.97 ± 0.36 | 1.4003 ± 0.0004 | 0.682 ± 0.006
x2 = 0.8001 | 874.32 ± 0.36 | 1.3986 ± 0.0004 | 0.674 ± 0.006
x2 = 0.9 | 875.2 ± 0.36 | 1.3952 ± 0.0004 | 0.659 ± 0.006

CCCCCCCl [1-chlorohexane]
Details | mass density [kg/m3] | refractive index
[1] | – | 1.4171 ± 0.0004
[2] | 873.39 ± 0.47 | –

CCCCCCCl [1-chlorohexane] + CCCCOC(C)=O
Details | mass density, [3] [kg/m3] | refractive index, [4] | viscosity, [3] [mPa·s]
x2 = 0 | 873.39 ± 0.47 | 1.4171 ± 0.0004 | –
x2 = 0.0568 | 873.06 ± 0.47 | 1.4159 ± 0.0004 | 0.662 ± 0.007
x2 = 0.1099 | 872.97 ± 0.46 | 1.4148 ± 0.0004 | 0.659 ± 0.006
x2 = 0.1638 | 872.88 ± 0.45 | 1.4137 ± 0.0004 | 0.657 ± 0.006
x2 = 0.2188 | 872.81 ± 0.44 | 1.4125 ± 0.0004 | 0.655 ± 0.006
x2 = 0.3237 | 872.8 ± 0.43 | 1.4102 ± 0.0004 | 0.652 ± 0.006
x2 = 0.3745 | 872.83 ± 0.42 | 1.4091 ± 0.0004 | 0.651 ± 0.006
x2 = 0.4271 | 872.87 ± 0.42 | 1.4078 ± 0.0004 | 0.65 ± 0.006
x2 = 0.4773 | 872.98 ± 0.41 | 1.4066 ± 0.0004 | 0.649 ± 0.006
x2 = 0.5286 | 873.11 ± 0.4 | 1.4053 ± 0.0004 | 0.648 ± 0.006
x2 = 0.6265 | 873.53 ± 0.39 | 1.4028 ± 0.0004 | 0.646 ± 0.006
x2 = 0.6753 | 873.78 ± 0.39 | 1.4015 ± 0.0004 | 0.645 ± 0.006
x2 = 0.7232 | 874.04 ± 0.38 | 1.4001 ± 0.0004 | 0.645 ± 0.006
x2 = 0.8171 | 874.66 ± 0.37 | 1.3973 ± 0.0004 | 0.645 ± 0.006
x2 = 0.8631 | 875.01 ± 0.37 | 1.3959 ± 0.0004 | 0.645 ± 0.006

CCCCCCCCCl [1-chlorooctane]
Details | mass density [kg/m3] | refractive index
[1] | – | 1.4282 ± 0.0004
[2] | 868.71 ± 0.37 | –

CCCCCCCCCl [1-chlorooctane] + CCCCOC(C)=O
Details | mass density, [3] [kg/m3] | refractive index, [4] | viscosity, [3] [mPa·s]
x2 = 0 | 868.71 ± 0.37 | 1.4282 ± 0.0004 | –
x2 = 0.0507 | 868.69 ± 0.37 | 1.4271 ± 0.0004 | 1.032 ± 0.008
x2 = 0.1002 | 868.7 ± 0.37 | 1.4264 ± 0.0004 | 1.007 ± 0.007
x2 = 0.1498 | 868.74 ± 0.37 | 1.4256 ± 0.0004 | 0.981 ± 0.007
x2 = 0.1999 | 868.73 ± 0.37 | 1.4247 ± 0.0004 | 0.959 ± 0.007
x2 = 0.3001 | 868.77 ± 0.37 | 1.4222 ± 0.0004 | 0.911 ± 0.007
x2 = 0.3496 | 868.82 ± 0.37 | 1.4208 ± 0.0004 | 0.889 ± 0.007
x2 = 0.4001 | 868.99 ± 0.37 | 1.4192 ± 0.0004 | 0.867 ± 0.007
x2 = 0.4503 | 869.17 ± 0.37 | 1.4174 ± 0.0004 | 0.846 ± 0.007
x2 = 0.5 | 869.45 ± 0.37 | 1.4156 ± 0.0004 | 0.825 ± 0.007
x2 = 0.6019 | 870.13 ± 0.36 | 1.4114 ± 0.0004 | 0.784 ± 0.006
x2 = 0.6999 | 871.1 ± 0.36 | 1.4069 ± 0.0004 | 0.745 ± 0.006
x2 = 0.7998 | 872.48 ± 0.36 | 1.4018 ± 0.0004 | 0.708 ± 0.006
x2 = 0.8999 | 874.25 ± 0.36 | 1.3968 ± 0.0004 | 0.674 ± 0.006

CCCCCCl [1-chloropentane]
Details | mass density [kg/m3] | refractive index
[1] | – | 1.4097 ± 0.0004
[2] | 876.93 ± 0.47 | –

CCCCCCl [1-chloropentane] + CCCCOC(C)=O
Details | mass density, [3] [kg/m3] | refractive index, [4] | viscosity, [3] [mPa·s]
x2 = 0 | 876.93 ± 0.47 | 1.4097 ± 0.0004 | –
x2 = 0.05 | 876.71 ± 0.46 | 1.4081 ± 0.0004 | 0.55 ± 0.006
x2 = 0.1 | 876.44 ± 0.45 | 1.4065 ± 0.0004 | 0.552 ± 0.006
x2 = 0.15 | 876.14 ± 0.45 | 1.405 ± 0.0004 | 0.554 ± 0.006
x2 = 0.2 | 875.89 ± 0.44 | 1.4036 ± 0.0004 | 0.557 ± 0.006
x2 = 0.3 | 875.46 ± 0.43 | 1.401 ± 0.0004 | 0.563 ± 0.006
x2 = 0.35 | 875.29 ± 0.42 | 1.3998 ± 0.0004 | 0.567 ± 0.006
x2 = 0.4 | 875.2 ± 0.42 | 1.3987 ± 0.0004 | 0.571 ± 0.006
x2 = 0.5 | 875.11 ± 0.4 | 1.3967 ± 0.0004 | 0.58 ± 0.006
x2 = 0.6 | 875.15 ± 0.39 | 1.395 ± 0.0004 | 0.591 ± 0.006
x2 = 0.7019 | 875.34 ± 0.38 | 1.3936 ± 0.0004 | 0.603 ± 0.006
x2 = 0.75 | 875.48 ± 0.38 | 1.3931 ± 0.0004 | 0.61 ± 0.006
x2 = 0.7998 | 875.62 ± 0.37 | 1.3926 ± 0.0004 | 0.616 ± 0.006
x2 = 0.9 | 875.94 ± 0.36 | 1.3921 ± 0.0004 | 0.631 ± 0.006

CCCCOC(C)=O [butyl ethanoate]
Details | mass density [kg/m3] | refractive index
[1] | – | 1.3918 ± 0.0004
[2] | 876.28 ± 0.36 | –

CCCCOC(C)=O [butyl ethanoate] + CCCCCCCCCl
x1 = 1
Details | mass density [kg/m3] | refractive index
[3] | 876.28 ± 0.36 | –
[4] | – | 1.3918 ± 0.0004

CCCCOC(C)=O [butyl ethanoate] + CCCCCCCCl
x1 = 1
Details | mass density [kg/m3] | refractive index
[3] | 876.28 ± 0.36 | –
[4] | – | 1.3918 ± 0.0004

CCCCOC(C)=O [butyl ethanoate] + CCCCCCCl
x1 = 1
Details | mass density [kg/m3] | refractive index
[3] | 876.28 ± 0.36 | –
[4] | – | 1.3918 ± 0.0004

CCCCOC(C)=O [butyl ethanoate] + CCCCCCl
x1 = 1
Details | mass density [kg/m3] | refractive index
[3] | 876.28 ± 0.36 | –
[4] | – | 1.3918 ± 0.0004

CCCCOC(C)=O [butyl ethanoate] + CCCCCl
x1 = 1
Details | mass density [kg/m3] | refractive index
[3] | 876.28 ± 0.36 | –
[4] | – | 1.3918 ± 0.0004
